Patent US12258327B2, “5-membered heteroaryl-containing aminopyridine compounds as EGFR inhibitors” (YUHAN CORPORATION, priority 2021, dated 2025)
Like-named read-outs stand apart in the source and are kept apart here.

What was measured:
[1] = biological target: EGFR L858R/T790M/C797S (Homo sapiens, UniProt P00533, C797S/L858R/T790M); test: Biochemical EGFR kinase assay (Lance Ultra TR-FRET), triple mutant L858R/T790M/C797S
In short: (§1)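 In this biochemical assay, phosphorylation after a one-hour room-temperature reaction was detected with europium-labelled anti-phosphopeptide antibody at 2 nM final concentration.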

[2] = biological target: EGFR wildtype (WT) (Homo sapiens, UniProt P00533); test: Biochemical EGFR kinase assay (Lance Ultra TR-FRET), wildtype
Sequence of EGFR wildtype (WT) (P00533 25-1210): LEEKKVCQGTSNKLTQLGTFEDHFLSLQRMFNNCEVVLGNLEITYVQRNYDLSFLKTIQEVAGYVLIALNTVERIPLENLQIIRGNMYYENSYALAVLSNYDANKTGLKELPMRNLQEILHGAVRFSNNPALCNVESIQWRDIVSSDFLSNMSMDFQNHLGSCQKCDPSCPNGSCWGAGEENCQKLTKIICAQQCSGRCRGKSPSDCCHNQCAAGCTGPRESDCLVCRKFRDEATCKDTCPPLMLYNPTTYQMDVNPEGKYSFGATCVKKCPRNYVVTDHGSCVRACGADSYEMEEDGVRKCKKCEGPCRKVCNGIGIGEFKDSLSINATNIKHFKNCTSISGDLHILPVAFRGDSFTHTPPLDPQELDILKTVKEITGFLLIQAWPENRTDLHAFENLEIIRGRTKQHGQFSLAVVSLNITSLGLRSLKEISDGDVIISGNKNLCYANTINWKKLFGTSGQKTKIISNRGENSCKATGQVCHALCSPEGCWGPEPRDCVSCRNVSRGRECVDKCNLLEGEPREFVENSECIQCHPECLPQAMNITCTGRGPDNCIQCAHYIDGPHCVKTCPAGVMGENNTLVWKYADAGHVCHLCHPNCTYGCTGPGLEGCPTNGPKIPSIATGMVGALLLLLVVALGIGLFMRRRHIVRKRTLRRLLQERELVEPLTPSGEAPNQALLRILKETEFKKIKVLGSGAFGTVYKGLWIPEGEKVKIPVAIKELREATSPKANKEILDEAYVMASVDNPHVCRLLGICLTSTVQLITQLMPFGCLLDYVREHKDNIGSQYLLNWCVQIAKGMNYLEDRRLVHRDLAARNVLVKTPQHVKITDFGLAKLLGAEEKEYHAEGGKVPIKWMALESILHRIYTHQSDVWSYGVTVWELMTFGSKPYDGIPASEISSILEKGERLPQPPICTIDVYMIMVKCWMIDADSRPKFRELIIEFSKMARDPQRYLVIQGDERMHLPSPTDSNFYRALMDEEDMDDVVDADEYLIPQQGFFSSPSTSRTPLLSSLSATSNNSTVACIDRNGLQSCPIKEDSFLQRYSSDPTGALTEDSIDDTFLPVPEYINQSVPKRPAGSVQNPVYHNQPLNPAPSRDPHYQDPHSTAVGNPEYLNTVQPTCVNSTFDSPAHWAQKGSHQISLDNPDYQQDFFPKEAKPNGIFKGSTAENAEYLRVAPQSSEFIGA
In short: as §1

[3] = biological target: EGFR del19/T790M/C797S (Homo sapiens, UniProt P00533, C797S/DEL746-750/T790M); test: Biochemical EGFR kinase assay (Lance Ultra TR-FRET), triple mutant del19/T790M/C797S
In short: as §1

[4] = biological target: EGFR L858R/C797S (Homo sapiens, UniProt P00533, C797S/L858R); test: Biochemical EGFR kinase assay (Lance Ultra TR-FRET), double mutant L858R/C797S
Sequence of EGFR L858R/C797S (P00533 25-1210 C797S/L858R): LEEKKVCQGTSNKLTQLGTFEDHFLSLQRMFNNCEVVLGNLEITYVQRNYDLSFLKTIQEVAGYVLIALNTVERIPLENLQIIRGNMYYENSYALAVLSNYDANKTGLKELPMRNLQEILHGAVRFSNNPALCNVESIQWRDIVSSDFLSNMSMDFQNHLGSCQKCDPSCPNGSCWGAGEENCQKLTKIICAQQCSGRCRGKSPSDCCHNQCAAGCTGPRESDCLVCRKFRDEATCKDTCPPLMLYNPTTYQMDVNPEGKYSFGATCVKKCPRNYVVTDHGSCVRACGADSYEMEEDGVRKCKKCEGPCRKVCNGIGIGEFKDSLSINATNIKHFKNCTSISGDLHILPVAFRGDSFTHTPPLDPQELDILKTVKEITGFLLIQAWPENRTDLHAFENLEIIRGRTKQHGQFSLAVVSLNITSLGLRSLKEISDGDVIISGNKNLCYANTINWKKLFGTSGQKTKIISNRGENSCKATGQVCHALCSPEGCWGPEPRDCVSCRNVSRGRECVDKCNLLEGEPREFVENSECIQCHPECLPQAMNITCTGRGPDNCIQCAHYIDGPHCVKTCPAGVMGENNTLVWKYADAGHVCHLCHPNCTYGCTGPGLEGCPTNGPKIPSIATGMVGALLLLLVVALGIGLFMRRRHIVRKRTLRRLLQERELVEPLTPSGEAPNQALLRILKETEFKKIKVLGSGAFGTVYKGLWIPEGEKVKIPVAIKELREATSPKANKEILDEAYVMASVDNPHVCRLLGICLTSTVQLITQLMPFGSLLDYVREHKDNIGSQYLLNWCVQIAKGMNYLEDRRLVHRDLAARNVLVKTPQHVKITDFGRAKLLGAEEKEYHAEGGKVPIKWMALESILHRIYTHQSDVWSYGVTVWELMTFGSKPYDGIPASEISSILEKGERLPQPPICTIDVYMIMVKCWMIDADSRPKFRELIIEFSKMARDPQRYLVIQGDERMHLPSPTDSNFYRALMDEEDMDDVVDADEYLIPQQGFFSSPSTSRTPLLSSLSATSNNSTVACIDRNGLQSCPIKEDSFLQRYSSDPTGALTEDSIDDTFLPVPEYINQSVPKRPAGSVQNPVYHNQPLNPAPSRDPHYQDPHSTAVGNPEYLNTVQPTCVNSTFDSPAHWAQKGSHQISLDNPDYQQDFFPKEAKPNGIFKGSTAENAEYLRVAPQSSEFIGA
In short: as §1

[5] = biological target: EGFR del19/C797S (Homo sapiens, UniProt P00533, C797S/DEL746-750); test: Biochemical EGFR kinase assay (Lance Ultra TR-FRET), double mutant del19/C797S
Sequence of EGFR del19/C797S (P00533 with tags, fused parts or gaps DEL746-750/C797S): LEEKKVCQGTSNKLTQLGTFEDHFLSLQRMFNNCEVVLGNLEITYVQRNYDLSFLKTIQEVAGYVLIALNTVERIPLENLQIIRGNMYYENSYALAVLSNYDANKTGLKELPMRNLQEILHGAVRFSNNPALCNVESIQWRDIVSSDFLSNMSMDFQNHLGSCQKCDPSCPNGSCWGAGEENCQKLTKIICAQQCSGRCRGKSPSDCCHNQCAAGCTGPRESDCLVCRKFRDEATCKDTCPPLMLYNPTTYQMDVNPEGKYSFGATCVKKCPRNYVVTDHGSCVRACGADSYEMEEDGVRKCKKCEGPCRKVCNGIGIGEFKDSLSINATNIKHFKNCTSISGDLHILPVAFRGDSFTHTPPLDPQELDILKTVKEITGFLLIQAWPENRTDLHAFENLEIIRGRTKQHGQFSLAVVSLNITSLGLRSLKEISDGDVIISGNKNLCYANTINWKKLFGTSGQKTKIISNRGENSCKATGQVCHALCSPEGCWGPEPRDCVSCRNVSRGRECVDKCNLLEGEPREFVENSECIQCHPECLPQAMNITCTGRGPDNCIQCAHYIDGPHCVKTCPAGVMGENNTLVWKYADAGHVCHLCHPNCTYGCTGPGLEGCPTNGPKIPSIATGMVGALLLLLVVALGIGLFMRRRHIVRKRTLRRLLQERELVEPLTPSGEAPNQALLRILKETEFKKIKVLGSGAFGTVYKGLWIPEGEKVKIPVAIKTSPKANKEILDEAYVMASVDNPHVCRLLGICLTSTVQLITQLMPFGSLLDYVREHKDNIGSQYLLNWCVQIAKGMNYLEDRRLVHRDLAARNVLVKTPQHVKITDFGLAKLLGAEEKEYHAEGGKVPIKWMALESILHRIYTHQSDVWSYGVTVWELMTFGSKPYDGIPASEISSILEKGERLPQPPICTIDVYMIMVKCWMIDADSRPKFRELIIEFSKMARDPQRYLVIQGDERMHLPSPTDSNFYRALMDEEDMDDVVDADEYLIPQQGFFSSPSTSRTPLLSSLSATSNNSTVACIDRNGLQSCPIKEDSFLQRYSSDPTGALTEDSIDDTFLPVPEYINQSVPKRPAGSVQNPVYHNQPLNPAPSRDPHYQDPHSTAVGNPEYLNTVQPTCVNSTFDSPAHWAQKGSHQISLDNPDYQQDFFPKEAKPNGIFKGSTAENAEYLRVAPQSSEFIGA
In short: as §1

[6] = Km ATP, read-out: IC50 L858R/T790M/C797S, Km ATP
[7] = Km ATP, read-out: IC50 WT, Km ATP
[8] = Km ATP, read-out: IC50 del19/T790M/C797S, Km ATP
[9] = Km ATP, read-out: IC50 L858R/C797S, Km ATP
[10] = Km ATP, read-out: IC50 del19/C797S, Km ATP
[11] = Km ATP, read-out: IC50 L858R/T790M/C797S (nM) Km ATP
[12] = Km ATP, read-out: IC50 WT (nM) Km ATP
[13] = Km ATP, read-out: IC50 del19/T790M/C797S (nM) Km ATP
[14] = Km ATP, read-out: IC50 L858R/C797S (nM) Km ATP
[15] = Km ATP, read-out: IC50 del19/C797S (nM) Km ATP
[16] = IC50 L858R/T790M/C797S (nM) 100 μM ATP, 100 μM ATP
[17] = IC50 WT (nM) 100 μM ATP, 100 μM ATP
[18] = IC50 del19/T790M/C797S (nM) 100 μM ATP, 100 μM ATP
[19] = IC50 L858R/C797S (nM) 100 μM ATP, 100 μM ATP
[20] = IC50 del19/C797S (nM) 100 μM ATP, 100 μM ATP

Sequence of EGFR L858R/T790M/C797S (P00533 25-1210 T790M/C797S/L858R): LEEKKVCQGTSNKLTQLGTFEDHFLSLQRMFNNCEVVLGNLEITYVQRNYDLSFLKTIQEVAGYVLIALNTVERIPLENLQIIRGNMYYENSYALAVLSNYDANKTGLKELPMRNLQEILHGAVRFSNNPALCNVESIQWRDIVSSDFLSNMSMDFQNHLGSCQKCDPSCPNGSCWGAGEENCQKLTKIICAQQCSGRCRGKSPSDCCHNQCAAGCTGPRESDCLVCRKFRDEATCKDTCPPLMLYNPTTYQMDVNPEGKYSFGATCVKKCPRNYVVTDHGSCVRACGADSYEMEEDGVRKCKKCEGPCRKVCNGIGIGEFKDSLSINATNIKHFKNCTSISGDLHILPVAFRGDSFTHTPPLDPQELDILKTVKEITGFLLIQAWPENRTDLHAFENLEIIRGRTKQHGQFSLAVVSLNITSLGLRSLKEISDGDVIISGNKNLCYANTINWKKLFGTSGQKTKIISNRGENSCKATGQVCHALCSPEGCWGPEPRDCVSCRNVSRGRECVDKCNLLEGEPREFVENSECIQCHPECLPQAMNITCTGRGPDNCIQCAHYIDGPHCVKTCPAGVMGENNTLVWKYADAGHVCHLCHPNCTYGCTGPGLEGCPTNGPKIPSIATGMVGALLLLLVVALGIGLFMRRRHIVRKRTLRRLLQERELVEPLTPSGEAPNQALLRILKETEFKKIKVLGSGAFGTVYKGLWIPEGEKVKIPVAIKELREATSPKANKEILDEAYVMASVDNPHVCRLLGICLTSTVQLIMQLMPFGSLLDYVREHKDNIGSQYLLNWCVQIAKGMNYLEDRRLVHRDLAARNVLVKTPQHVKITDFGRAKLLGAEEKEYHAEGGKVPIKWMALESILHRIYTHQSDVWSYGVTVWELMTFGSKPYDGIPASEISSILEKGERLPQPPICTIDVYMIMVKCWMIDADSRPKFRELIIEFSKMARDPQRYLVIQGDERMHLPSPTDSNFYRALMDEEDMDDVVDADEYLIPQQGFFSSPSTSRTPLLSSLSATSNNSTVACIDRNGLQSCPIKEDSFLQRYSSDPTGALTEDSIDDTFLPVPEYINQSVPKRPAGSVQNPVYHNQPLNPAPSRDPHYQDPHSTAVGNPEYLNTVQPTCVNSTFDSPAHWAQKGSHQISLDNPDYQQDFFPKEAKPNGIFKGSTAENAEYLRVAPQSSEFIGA

`Cn1nc(-c2cnc(Nc3ccnc(-c4cnn(CC(F)F)c4)n3)cc2N[C@H]2CC[C@@](C)(O)CC2)cc1C(F)(F)F` [Example 331, (1s,4s)-4-((2-((2-(1-(2,2-Difluoroethyl)-1H-pyrazol-4-yl)pyrimidin-4-yl)amino)-5-(1-methyl-5-(trifluoromethyl)-1H-pyrazol-3-yl)pyridin-4-yl)amino)-1-methylcyclohexan-1-ol] showed an IC50 [1, 6] of 2.6 nM, an IC50 [2, 7] of 142 nM and an IC50 [3, 8] of 2.3 nM. The IC50 [4, 9] was 6.8 nM and the IC50 [5, 10] was 11.9 nM.
Molecule `C=CCn1cc(-c2nccc(Nc3cc(N[C@H]4CC[C@@](C)(O)CC4)c(-c4ccn(C(F)F)n4)cn3)n2)cn1` [Example 116, (1s,4s)-4-((2-((2-(1-Allyl-1H-pyrazol-4-yl)pyrimidin-4-yl)amino)-5-(1-(difluoromethyl)-1H-pyrazol-3-yl)pyridin-4-yl)amino)-1-methylcyclohexan-1-ol] has an IC50 [1, 11] of 0.7 nM, an IC50 [2, 12] of 77.2 nM and an IC50 [3, 13] of 0.6 nM. It also gave an IC50 [4, 14] of 5 nM and an IC50 [5, 15] of 27.6 nM.
Molecule `O=S(=O)(C1CC1)n1cc(-c2nccc(Nc3cc(NC4CCC(F)(F)CC4)c(-c4ccn(C(F)F)n4)cn3)n2)cn1` [Example 215, N^2-(2-(1-(Cyclopropylsulfonyl)-1H-pyrazol-4-yl)pyrimidin-4-yl)-N^4-(4,4-difluorocyclohexyl)-5-(1-(difluoromethyl)-1H-pyrazol-3-yl)pyridine-2,4-diamine] has an IC50 [1, 11] of 8.6 nM, an IC50 [2, 12] of 434 nM and an IC50 [3, 13] of 11.9 nM. It also gave an IC50 [4, 14] of 32.5 nM and an IC50 [5, 15] of 70.2 nM.
`O=S(=O)(C1CC1)n1cc(-c2nccc(Nc3cc(NC4CCN(CC(F)F)CC4)c(-c4ccn(C(F)F)n4)cn3)n2)cn1` [Example 219, N^2-(2-(1-(Cyclopropylsulfonyl)-1H-pyrazol-4-yl)pyrimidin-4-yl)-N^4-(1-(2,2-difluoroethyl)piperidin-4-yl)-5-(1-(difluoromethyl)-1H-pyrazol-3-yl)pyridine-2,4-diamine] showed an IC50 [1, 11] of 0.5 nM, an IC50 [2, 12] of 8630 nM and an IC50 [3, 13] of 0.8 nM. The IC50 [4, 14] was 21.4 nM and the IC50 [5, 15] was 134 nM.
Work on `O=S(=O)(C1CC1)n1cc(-c2nccc(Nc3cc(N[C@H]4CC[C@@H](NCCF)CC4)c(-c4cc5n(n4)CCCC5)cn3)n2)cn1` [Example 62, N^2-(2-(1-(Cyclopropylsulfonyl)-1H-pyrazol-4-yl)pyrimidin-4-yl)-N^4-((1s,4s)-4-((2-fluoroethyl)amino)cyclohexyl)-5-(4,5,6,7-tetrahydropyrazolo[1,5-a]pyridin-2-yl)pyridine-2,4-diamine] yielded an IC50 [1, 16] of 0.2 nM, an IC50 [1, 11] of 0.1 nM and an IC50 [2, 17] of 617 nM. It also gave an IC50 [2, 12] of 1.1 nM, an IC50 [3, 18] of 0.3 nM and an IC50 [3, 13] of 0.2 nM. For the same molecule, the IC50 [4, 19] was 1.9 nM, the IC50 [4, 14] was 0.2 nM and the IC50 [5, 20] was 0.5 nM. For the same molecule, the IC50 [5, 15] was 0.2 nM.
Molecule `C[C@]1(O)CC[C@@H](Nc2cc(Nc3ccnc(N4CCC[C@H](O)C4)n3)ncc2-c2ccn(C(F)F)n2)CC1` [Example 351, (S)-1-(4-((5-(1-(Difluoromethyl)-1H-pyrazol-3-yl)-4-(((1s,4R)-4-hydroxy-4-methylcyclohexyl)amino)pyridin-2-yl)amino)pyrimidin-2-yl)piperidin-3-ol] has an IC50 [1, 6] of 2.8 nM, an IC50 [2, 7] of 235 nM and an IC50 [3, 8] of 2.7 nM. It also gave an IC50 [4, 9] of 44.3 nM and an IC50 [5, 10] of 198 nM.
`CN[C@H]1CC[C@@H](Nc2cc(Nc3ccnc(-c4cnn(S(=O)(=O)C5CC5)c4)n3)ncc2-c2csc(C(C)(C)O)n2)CC1` [Example 56, 2-(4-(6-((2-(1-(Cyclopropylsulfonyl)-1H-pyrazol-4-yl)pyrimidin-4-yl)amino)-4-(((1s,4s)-4-(methylamino)cyclohexyl)amino)pyridin-3-yl)thiazol-2-yl)propan-2-ol] was tested, and the IC50 [1, 16] was 0.8 nM, the IC50 [2, 17] was > 10000 nM and the IC50 [3, 18] was 0.6 nM. It also gave an IC50 [4, 19] of 7.1 nM and an IC50 [5, 20] of 13.2 nM.
`Cc1cc(-c2cnc(Nc3ccnc(-c4cnn(S(=O)(=O)C5CC5)c4)n3)cc2N[C@H]2CC[C@@H](CO)CC2)nn1C` [Example 280, ((1s,4s)-4-((2-((2-(1-(Cyclopropylsulfonyl)-1H-pyrazol-4-yl)pyrimidin-4-yl)amino)-5-(1,5-dimethyl-1H-pyrazol-3-yl)pyridin-4-yl)amino)cyclohexyl)methanol] showed an IC50 [1, 16] of 0.7 nM, an IC50 [1, 11] of 1 nM and an IC50 [2, 17] of 51.9 nM. It also gave an IC50 [2, 12] of 0.4 nM, an IC50 [3, 18] of 1 nM and an IC50 [3, 13] of 0.8 nM. It also gave an IC50 [4, 19] of 3.8 nM, an IC50 [4, 14] of 0.3 nM and an IC50 [5, 20] of 0.7 nM. The IC50 [5, 15] was 0.2 nM.
`Cc1cn(-c2cnc(Nc3ccnc(-c4cnn(S(=O)(=O)C5CC5)c4)n3)cc2N[C@H]2CC[C@@](C)(O)CC2)nc1C(F)(F)F` [Example 186, (1s,4s)-4-((2-((2-(1-(Cyclopropylsulfonyl)-1H-pyrazol-4-yl)pyrimidin-4-yl)amino)-5-(4-methyl-3-(trifluoromethyl)-1H-pyrazol-1-yl)pyridin-4-yl)amino)-1-methylcyclohexan-1-ol] gave an IC50 [1, 11] of 0.4 nM, an IC50 [2, 12] of 166 nM and an IC50 [3, 13] of 1.3 nM. It also gave an IC50 [4, 14] of 30.4 nM and an IC50 [5, 15] of 32.9 nM.
`Cn1ccc(-c2cnc(Nc3ccnc(-c4cnn(S(=O)(=O)C5CC5)c4)n3)cc2NCC2CCC(NCCF)CC2)n1` (stereo not drawn) [Example 131, N^2-(2-(1-(Cyclopropylsulfonyl)-1H-pyrazol-4-yl)pyrimidin-4-yl)-N^4-((4-((2-fluoroethyl)amino)cyclohexyl)methyl)-5-(1-methyl-1H-pyrazol-3-yl)pyridine-2,4-diamine] gave an IC50 [1, 16] of 0.3 nM, an IC50 [1, 11] of 0.1 nM and an IC50 [2, 17] of 1540 nM. For the same molecule, the IC50 [2, 12] was 2.8 nM, the IC50 [3, 18] was 0.3 nM and the IC50 [3, 13] was 0.2 nM. The IC50 [4, 19] was 1.1 nM, the IC50 [4, 14] was 0.4 nM and the IC50 [5, 20] was 0.5 nM. It also gave an IC50 [5, 15] of 0.2 nM.
For `C[C@]1(O)CC[C@@H](Nc2cc(Nc3nc(-c4cnn(S(=O)(=O)C5CC5)c4)ncc3F)ncc2-c2ccn(C(F)F)n2)CC1` [Example 316, (1s,4s)-4-((2-((2-(1-(Cyclopropylsulfonyl)-1H-pyrazol-4-yl)-5-fluoropyrimidin-4-yl)amino)-5-(1-(difluoromethyl)-1H-pyrazol-3-yl)pyridin-4-yl)amino)-1-methylcyclohexan-1-ol], the IC50 [1, 16] was 1 nM, the IC50 [1, 11] was 0.2 nM and the IC50 [2, 17] was > 10000 nM. It also gave an IC50 [2, 12] of 46 nM, an IC50 [3, 18] of 0.7 nM and an IC50 [3, 13] of 0.4 nM. It also gave an IC50 [4, 19] of 406 nM, an IC50 [4, 14] of 11.2 nM and an IC50 [5, 20] of 10.5 nM. The IC50 [5, 15] was 6 nM.
For `O=S(=O)(C1CC1)n1cc(-c2nccc(Nc3cc(NC4CCC(F)CC4)c(-c4ccn(C(F)F)n4)cn3)n2)cn1` (stereo not drawn) [Example 214, N^2-(2-(1-(Cyclopropylsulfonyl)-1H-pyrazol-4-yl)pyrimidin-4-yl)-5-(1-(difluoromethyl)-1H-pyrazol-3-yl)-N^4-(4-fluorocyclohexyl)pyridine-2,4-diamine], the IC50 [1, 11] was 3.1 nM, the IC50 [2, 12] was 45.2 nM and the IC50 [3, 13] was 5.2 nM. The IC50 [4, 14] was 3.4 nM and the IC50 [5, 15] was 9.9 nM.
`O=S(=O)(C1CC1)n1cc(-c2nccc(Nc3cc(NC[C@H]4CC[C@H](O)CC4)c(-c4ccn(C(F)F)n4)cn3)n2)cn1` [Example 31, (1r,4r)-4-(((2-((2-(1-(Cyclopropylsulfonyl)-1H-pyrazol-4-yl)pyrimidin-4-yl)amino)-5-(1-(difluoromethyl)-1H-pyrazol-3-yl)pyridin-4-yl)amino)methyl)cyclohexan-1-ol] was tested, and the IC50 [1, 11] was 0.2 nM, the IC50 [2, 17] was > 10000 nM and the IC50 [2, 12] was 10.5 nM. The IC50 [3, 18] was 1.3 nM, the IC50 [3, 13] was 0.4 nM and the IC50 [4, 19] was 18.7 nM. The IC50 [4, 14] was 1.3 nM, the IC50 [5, 20] was 1.3 nM and the IC50 [5, 15] was 0.5 nM.
Work on `CN(C)C[C@H]1CC[C@H](CNc2cc(Nc3ccnc(-c4cnn(S(=O)(=O)C5CC5)c4)n3)ncc2-c2csc(C(F)(F)F)n2)CC1` [Example 101, N^2-(2-(1-(Cyclopropylsulfonyl)-1H-pyrazol-4-yl)pyrimidin-4-yl)-N^4-(((1r,4r)-4-((dimethylamino)methyl)cyclohexyl)methyl)-5-(2-(trifluoromethyl)thiazol-4-yl)pyridine-2,4-diamine] yielded an IC50 [1, 16] of 0.3 nM, an IC50 [1, 11] of 0.1 nM and an IC50 [2, 17] of 828 nM. It also gave an IC50 [3, 18] of 0.3 nM, an IC50 [3, 13] of 0.3 nM and an IC50 [4, 19] of 3.8 nM. For the same molecule, the IC50 [4, 14] was 0.8 nM, the IC50 [5, 20] was 0.4 nM and the IC50 [5, 15] was 0.4 nM.
For `Cn1ccc(-c2cnc(Nc3ccnc(-c4cnn(S(=O)(=O)C5CC5)c4)n3)cc2NC2CCCC(NCCF)C2)n1` (stereo not drawn) [Example 225, N^2-(2-(1-(Cyclopropylsulfonyl)-1H-pyrazol-4-yl)pyrimidin-4-yl)-N^4-(3-((2-fluoroethyl)amino)cyclohexyl)-5-(1-methyl-1H-pyrazol-3-yl)pyridine-2,4-diamine], the IC50 [1, 16] was 0.6 nM, the IC50 [1, 11] was 0.2 nM and the IC50 [2, 17] was > 10000 nM. For the same molecule, the IC50 [2, 12] was 27.4 nM, the IC50 [3, 18] was 0.2 nM and the IC50 [3, 13] was 0.3 nM. For the same molecule, the IC50 [4, 19] was 15.3 nM, the IC50 [4, 14] was 5 nM and the IC50 [5, 20] was 6.7 nM. The IC50 [5, 15] was 2.9 nM.
